Source: PMC7680421 (Cell chemical biology, 2020)

Columns and labels:
Mouse ENPP1 [1] = target: T1, Mouse ENPP1 (Mus musculus, UniProt P06802); assay: In vitro ENPP1 activity assay with cGAMP as substrate; format: biochemical; conditions: Ki at pH 7.4
T1 sequence (P06802 92-905 isoform P06802-2): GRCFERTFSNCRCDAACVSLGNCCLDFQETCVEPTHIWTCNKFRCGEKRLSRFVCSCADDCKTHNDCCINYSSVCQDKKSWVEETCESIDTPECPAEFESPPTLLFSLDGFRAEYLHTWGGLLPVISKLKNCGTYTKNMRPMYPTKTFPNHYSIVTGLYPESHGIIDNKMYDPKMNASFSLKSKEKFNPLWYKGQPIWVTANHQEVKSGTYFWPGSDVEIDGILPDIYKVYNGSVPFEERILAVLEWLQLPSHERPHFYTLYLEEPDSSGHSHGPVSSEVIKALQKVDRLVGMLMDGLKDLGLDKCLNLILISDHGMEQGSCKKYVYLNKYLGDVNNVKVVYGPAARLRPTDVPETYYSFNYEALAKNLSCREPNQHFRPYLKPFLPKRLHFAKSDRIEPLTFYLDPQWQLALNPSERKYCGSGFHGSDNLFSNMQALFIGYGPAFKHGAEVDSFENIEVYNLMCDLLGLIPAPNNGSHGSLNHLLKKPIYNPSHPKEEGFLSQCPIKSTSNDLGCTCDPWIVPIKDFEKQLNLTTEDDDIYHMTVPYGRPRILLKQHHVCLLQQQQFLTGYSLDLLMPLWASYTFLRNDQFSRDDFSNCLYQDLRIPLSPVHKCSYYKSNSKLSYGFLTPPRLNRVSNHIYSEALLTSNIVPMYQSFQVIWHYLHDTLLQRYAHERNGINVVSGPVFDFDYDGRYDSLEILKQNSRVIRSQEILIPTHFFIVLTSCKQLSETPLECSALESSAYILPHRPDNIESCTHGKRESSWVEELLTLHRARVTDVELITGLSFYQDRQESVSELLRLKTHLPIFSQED

ENPP1 in mouse plasma = target: T2, ENPP1 in mouse plasma (Mus musculus, UniProt P06802); assay: Inhibition of cGAMP degradation in mouse plasma; format: biochemical; conditions: 50 mM EDTA, 37 °C
T2 sequence (P06802 85-906 limits assumed): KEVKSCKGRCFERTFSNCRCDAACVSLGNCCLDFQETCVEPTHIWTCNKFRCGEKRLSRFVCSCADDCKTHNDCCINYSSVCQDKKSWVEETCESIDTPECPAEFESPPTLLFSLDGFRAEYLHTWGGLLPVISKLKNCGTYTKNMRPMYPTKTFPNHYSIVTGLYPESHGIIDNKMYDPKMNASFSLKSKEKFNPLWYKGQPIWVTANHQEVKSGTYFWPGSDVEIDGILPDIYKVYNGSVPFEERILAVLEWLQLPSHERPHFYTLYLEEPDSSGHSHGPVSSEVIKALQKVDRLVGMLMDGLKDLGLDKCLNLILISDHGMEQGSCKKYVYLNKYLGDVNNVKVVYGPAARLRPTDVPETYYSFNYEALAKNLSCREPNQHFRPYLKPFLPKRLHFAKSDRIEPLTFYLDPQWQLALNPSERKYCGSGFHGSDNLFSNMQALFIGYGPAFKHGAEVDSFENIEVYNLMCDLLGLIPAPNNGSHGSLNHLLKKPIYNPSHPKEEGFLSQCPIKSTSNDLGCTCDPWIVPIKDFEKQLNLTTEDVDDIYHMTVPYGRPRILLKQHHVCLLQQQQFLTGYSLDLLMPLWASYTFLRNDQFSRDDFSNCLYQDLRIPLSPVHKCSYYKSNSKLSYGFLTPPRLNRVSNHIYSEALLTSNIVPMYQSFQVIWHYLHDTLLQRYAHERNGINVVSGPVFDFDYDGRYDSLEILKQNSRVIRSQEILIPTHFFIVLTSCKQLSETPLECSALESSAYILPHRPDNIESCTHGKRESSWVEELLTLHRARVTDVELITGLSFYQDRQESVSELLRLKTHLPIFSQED

ENPP1 in human plasma = ENPP1 in human plasma (Homo sapiens, UniProt P22413); conditions: 50 mM EDTA, 37 °C
hERG channel = hERG channel (Homo sapiens, UniProt Q12809); assay: hERG channel inhibition assay; conditions: at 25 μM
[2] = Plasma kinetics: half-life of radiolabeled cGAMP in human plasma; format: in vitro ADME; conditions: based on 5 healthy donors, 5 μM cGAMP, 37 °C
[3] = Plasma kinetics: half-life of radiolabeled cGAMP in mouse plasma; format: in vitro ADME; conditions: 5 μM cGAMP, 37 °C
Mouse ENPP1 [4] = target: T1, Mouse ENPP1; conditions: substrate cGAMP, pH 7.4

Sequence of hERG channel (Q12809 whole entry): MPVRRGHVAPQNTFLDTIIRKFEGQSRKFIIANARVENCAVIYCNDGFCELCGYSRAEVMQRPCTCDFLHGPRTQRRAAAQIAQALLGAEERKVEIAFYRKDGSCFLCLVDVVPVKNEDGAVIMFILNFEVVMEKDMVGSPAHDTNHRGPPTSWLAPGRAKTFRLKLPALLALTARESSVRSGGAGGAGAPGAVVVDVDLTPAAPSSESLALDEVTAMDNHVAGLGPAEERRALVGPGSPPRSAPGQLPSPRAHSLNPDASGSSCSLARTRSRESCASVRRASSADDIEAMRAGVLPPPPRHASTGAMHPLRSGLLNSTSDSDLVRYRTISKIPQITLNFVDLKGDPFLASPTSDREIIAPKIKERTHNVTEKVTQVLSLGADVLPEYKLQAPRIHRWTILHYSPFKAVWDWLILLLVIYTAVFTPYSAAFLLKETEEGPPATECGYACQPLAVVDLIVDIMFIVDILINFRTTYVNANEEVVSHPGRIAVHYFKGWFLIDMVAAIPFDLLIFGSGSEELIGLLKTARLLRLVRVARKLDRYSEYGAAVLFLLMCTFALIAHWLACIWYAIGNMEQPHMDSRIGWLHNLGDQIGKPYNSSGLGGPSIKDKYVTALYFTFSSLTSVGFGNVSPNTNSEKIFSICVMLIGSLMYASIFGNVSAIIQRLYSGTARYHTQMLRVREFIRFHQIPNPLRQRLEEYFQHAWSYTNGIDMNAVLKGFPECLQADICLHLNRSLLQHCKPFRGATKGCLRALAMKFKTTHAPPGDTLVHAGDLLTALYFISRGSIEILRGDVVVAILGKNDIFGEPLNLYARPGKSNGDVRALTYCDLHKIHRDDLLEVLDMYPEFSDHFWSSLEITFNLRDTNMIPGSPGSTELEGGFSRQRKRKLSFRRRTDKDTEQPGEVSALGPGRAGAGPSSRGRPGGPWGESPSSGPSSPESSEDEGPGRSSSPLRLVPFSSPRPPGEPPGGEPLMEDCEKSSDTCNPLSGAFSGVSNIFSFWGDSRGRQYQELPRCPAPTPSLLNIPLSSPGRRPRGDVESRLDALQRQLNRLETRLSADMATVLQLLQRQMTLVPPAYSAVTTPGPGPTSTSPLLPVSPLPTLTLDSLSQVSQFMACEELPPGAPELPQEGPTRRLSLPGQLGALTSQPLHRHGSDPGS
Sequence of ENPP1 in human plasma (P22413 103-925 limits assumed): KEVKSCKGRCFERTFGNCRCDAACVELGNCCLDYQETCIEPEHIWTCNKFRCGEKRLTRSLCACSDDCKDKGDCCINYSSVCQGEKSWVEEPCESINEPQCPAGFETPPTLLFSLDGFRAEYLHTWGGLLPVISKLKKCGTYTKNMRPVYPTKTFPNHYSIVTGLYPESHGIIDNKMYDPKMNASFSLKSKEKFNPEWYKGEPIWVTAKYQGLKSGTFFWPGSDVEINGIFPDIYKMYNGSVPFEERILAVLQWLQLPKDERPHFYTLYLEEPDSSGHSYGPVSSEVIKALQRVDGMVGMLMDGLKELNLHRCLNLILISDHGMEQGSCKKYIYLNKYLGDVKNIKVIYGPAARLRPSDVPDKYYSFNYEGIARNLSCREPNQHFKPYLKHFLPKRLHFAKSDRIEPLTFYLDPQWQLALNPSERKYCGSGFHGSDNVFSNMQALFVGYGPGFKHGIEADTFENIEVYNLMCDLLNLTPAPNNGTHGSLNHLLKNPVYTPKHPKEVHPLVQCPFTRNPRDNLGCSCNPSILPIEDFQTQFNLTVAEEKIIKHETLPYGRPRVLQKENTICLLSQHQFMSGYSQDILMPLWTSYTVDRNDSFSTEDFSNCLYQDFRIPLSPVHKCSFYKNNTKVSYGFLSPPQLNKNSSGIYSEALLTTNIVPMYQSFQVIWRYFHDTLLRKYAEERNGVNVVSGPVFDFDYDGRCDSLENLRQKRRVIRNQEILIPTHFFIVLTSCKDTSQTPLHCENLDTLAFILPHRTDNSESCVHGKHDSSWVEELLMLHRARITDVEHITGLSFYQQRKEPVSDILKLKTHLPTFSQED

In the case of `COc1cc2nccc(N3CCC(CCP(=O)(O)O)CC3)c2cc1OC` [compound 46], the “loss in potency compared to compound 15” value (Mouse ENPP1 [1]) was 3 fold.

With `COc1ccc2ncnc(N3CCC(CCP(=O)(O)O)CC3)c2c1` [compound 25] the “loss in potency compared to compound 15” value (Mouse ENPP1 [1]) was 100 fold.

With `O=C(O)CN(CCN(CC(=O)O)CC(=O)O)CC(=O)O` [EDTA] the “effect on cGAMP degradation” value (ENPP1 in mouse plasma) was “abrogated cGAMP degradation” and the “effect on cGAMP degradation” value (ENPP1 in human plasma) was “abrogated cGAMP degradation”.

In the case of `COc1cc2ncnc(N3CCC(CCP(=O)(O)O)CC3)c2cc1OC` [compound 15], the hERG inhibition (hERG channel) was “no inhibition”.

For `Nc1nc2c(ncn2[C@@H]2O[C@@H]3COP(=O)(O)O[C@H]4[C@@H](O)[C@H](n5cnc6c(N)ncnc65)O[C@@H]4COP(=O)(O)O[C@@H]2[C@@H]3O)c(=O)[nH]1` [cGAMP, 2’,3’-cyclic GMP-AMP], the “t1/2 of cGAMP” value [2] was 30 to 60 min, the “t1/2 of cGAMP” value [3] was 16 min and the Km (Mouse ENPP1 [4]) was 240 µM.
